These are literature values, as cited in patent publication US20260108515A1, “A RAPIDLY DISINTEGRATING TABLET OF ROSUVASTATIN AND ITS PROCESS OF PREPARATION” (NOVUMGEN LIMITED, priority 2022, published 2026).

The conditions of data set [1]: in vivo.
Data set [2] concerns high-density lipoprotein—Cholesterol. To be noted: patients with raised triglyceride levels.
For data set [3] the following is noted: high permeability and low solubility.
The target in data set [4] is CYP3A4 (Homo sapiens, UniProt P08684).
Sequence of CYP3A4 (P08684 whole entry): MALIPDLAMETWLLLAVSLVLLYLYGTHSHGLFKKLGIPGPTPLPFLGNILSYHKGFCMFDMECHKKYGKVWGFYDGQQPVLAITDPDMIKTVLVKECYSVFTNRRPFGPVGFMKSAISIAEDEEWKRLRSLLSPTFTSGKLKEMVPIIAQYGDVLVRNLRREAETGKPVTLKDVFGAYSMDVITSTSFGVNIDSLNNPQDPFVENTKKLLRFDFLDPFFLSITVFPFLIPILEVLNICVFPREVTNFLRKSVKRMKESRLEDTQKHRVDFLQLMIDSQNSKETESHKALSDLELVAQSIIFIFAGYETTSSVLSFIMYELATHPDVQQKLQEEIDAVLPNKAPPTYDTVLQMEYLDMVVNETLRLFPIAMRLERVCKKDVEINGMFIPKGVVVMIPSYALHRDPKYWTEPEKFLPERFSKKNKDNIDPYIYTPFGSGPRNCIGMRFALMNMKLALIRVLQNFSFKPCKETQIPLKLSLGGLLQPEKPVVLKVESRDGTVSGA

With `CC(C)c1nc(N(C)S(C)(=O)=O)nc(-c2ccc(F)cc2)c1/C=C/[C@@H](O)C[C@@H](O)CC(=O)O` [Rosuvastatin, (E,3R,5S)-7-[4-(4-fluorophenyl)-2-[methyl(methylsulfonyl)amino]-6-propan-2-ylpyrimidin-5-yl]-3,5-dihydroxyhept-6-enoic acid], in data set [1], the plasma half-life is 18 to 24 h. Also, the “raises high-density lipoprotein—Cholesterol” value in data set [2] is recorded as 15-20%. Moreover, the “biopharmaceutics classification system (BCS) class” value in data set [3] is “class II”. In addition, the metabolizing isoenzyme result in data set [4] is listed as “metabolized primarily by CYP3A4”.
